One data set concerns Mus musculus. As to the kind of experiment: Antidiabetic activity in diet-induced obese C57BL/6 mouse assessed as reduction in plasma glucose delta AUC level at 1 mg/kg, po administered 30 mins prior to glucose challenge measured 90 mins post glucose challenge by OGTT relative to control. Type of data set: functional. Details: scale not given: the % may be the effect or the level left.

Data set [1] has as its target Free fatty acid receptor 4 (Homo sapiens, UniProt Q5NUL3). Description: Agonist activity at human GPR120 short splice variant expressed in HEK293 cells assessed as increase in intracellular calcium flux incubated for 30 mins measured for 300 secs at 1 sec interval by Fluo-4 NW dye based FLIPR assay. Format: functional, cell-based. For orientation: Calcium flux is commonly read through the fluorescence of an indicator in the cells.

Data set [2] in a line: Metabolic stability in human liver microsomes assessed as parent compound remaining measured at 10 mins. Format: ADME, microsome. Particulars: read-out: Stability. A general note: Liver microsomes are vesicles of endoplasmic reticulum, rich in cytochrome P450 enzymes.
A short description of data set [3]: Metabolic stability in mouse liver microsomes assessed as parent compound remaining measured at 10 mins. Format: ADME, microsome. To be noted: for remaining at 10 min: liver microsomes, read-out: Stability.
Data set [4] in a line: Metabolic stability in rat liver microsomes assessed as parent compound remaining measured at 10 mins. Type of data set: ADME, microsome. To be noted: for remaining at 10 min: liver microsomes, read-out: Stability.
Data set [5] has as its target T1, Free fatty acid receptor 4 (Homo sapiens, UniProt Q5NUL3).
T1 sequence (Q5NUL3 whole entry): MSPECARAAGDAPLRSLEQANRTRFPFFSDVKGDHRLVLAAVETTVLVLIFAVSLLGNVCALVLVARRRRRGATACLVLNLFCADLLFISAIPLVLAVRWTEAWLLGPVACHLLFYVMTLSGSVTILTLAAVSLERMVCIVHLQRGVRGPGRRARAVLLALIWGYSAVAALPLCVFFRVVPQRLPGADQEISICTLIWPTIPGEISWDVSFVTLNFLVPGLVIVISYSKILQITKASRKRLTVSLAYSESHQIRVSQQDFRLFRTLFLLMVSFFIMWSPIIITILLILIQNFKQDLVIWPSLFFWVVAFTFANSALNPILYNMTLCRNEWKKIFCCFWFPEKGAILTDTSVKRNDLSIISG
Description: Agonist activity at PK-tagged human GPR120 long isoform expressed in CHOK1 cells co-expressing EA-tagged beta-arrestin assessed as beta-gal enzyme complex formation after 90 mins by enzyme fragment complementation assay. Type of data set: cell-based.

Data set [6] addresses T2, Free fatty acid receptor 4 (Mus musculus, UniProt Q7TMA4).
T2 sequence (Q7TMA4 whole entry): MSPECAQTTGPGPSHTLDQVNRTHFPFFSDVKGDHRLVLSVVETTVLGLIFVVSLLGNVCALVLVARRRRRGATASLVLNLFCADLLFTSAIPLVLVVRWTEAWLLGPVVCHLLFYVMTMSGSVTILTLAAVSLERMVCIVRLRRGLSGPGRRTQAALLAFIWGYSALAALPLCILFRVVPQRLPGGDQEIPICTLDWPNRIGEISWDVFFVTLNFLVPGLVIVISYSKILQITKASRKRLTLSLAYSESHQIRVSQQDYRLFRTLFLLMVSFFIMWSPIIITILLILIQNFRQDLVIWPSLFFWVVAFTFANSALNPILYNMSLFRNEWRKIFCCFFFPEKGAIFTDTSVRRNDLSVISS
As to the kind of experiment: Agonist activity at mouse GPR120 by calcium flux assay. Type of data set: functional.

In data set [7] the target is Free fatty acid receptor 1 (Homo sapiens, UniProt O14842). Description: Agonist activity at human GPR40 by calcium flux assay. Type of data set: functional.
Chain of Free fatty acid receptor 1 (O14842 whole entry): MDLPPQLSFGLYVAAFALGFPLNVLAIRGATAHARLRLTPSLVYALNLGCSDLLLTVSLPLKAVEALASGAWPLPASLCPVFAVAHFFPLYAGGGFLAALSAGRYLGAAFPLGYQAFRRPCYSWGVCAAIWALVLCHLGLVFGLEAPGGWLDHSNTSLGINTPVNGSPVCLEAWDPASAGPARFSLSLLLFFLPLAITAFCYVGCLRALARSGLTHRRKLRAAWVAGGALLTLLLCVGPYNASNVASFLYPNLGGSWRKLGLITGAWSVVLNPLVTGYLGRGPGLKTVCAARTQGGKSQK

The results in this text go back to ChEMBL document CHEMBL4130453, “Discovery of an Isothiazole-Based Phenylpropanoic Acid GPR120 Agonist as a Development Candidate for Type 2 Diabetes” (ACS Med Chem Lett, 2017).

The EC50 is the concentration that produces a half-maximal response.

With `N#C[C@@H]1C[C@@H]2C[C@@H]2N1C(=O)[C@@H](N)C12CC3CC(CC(O)(C3)C1)C2` [SAXAGLIPTIN ANHYDROUS], the Activity in the data set with Mus musculus is recorded as 87%.
In the case of `O=C(O)CCc1cc(F)c(OCc2c(-c3ccc(Cl)cc3)nsc2C(F)(F)F)c(F)c1`, in data set [1], the EC50 turned out to be 51 nM.
For the compound `CCc1ccc(-c2snc(Cl)c2COc2ccc(CCC(=O)O)c(C)c2C)cc1`, in data set [1], the EC50 came out at 56 nM. Besides, the remaining at 10 min in data set [2] was found to be 76%; in data set [3], 102%.
Take `CCc1ccc(-c2nsc(C(F)(F)F)c2COc2c(F)cc(CCC(=O)O)cc2F)cc1`: in data set [1], the EC50 stood at 34 nM.
For the compound `CCc1ccc(-c2nsc(OC)c2COc2ccc(CCC(=O)O)c(C)c2C)cc1`, in data set [1], the EC50 worked out at 920 nM.
As to `Cc1c(CCC(=O)O)ccc(OCc2c(-c3ccc(Cl)cc3)nsc2C(F)(F)F)c1C`, in data set [1], the EC50 came out at 155 nM. In data set [2], the remaining at 10 min was 104%. Besides, the Stability was 127% in data set [3] (microsomes, 10 min) and 133% in data set [4] (microsomes, 10 min).
Consider `COc1ccc(-c2nsc(C(F)(F)F)c2COc2c(F)cc(CCC(=O)O)cc2F)cc1`, for which the EC50 in data set [1] came to 75 nM.
Turning to `O=C(O)CCc1cc(F)c(OCc2c(-c3ccc(OC(F)(F)F)cc3)nsc2C(F)(F)F)c(F)c1`, the figures for the EC50 in data set [1] and in data set [5] were 314 nM and 99 nM, respectively.
On to `Cc1cc(OCc2c(-c3ccc(Cl)cc3)nsc2C(F)(F)F)c(F)cc1CCC(=O)O`, for which the EC50 in data set [1] was 121 nM.
Same read-out and setting: next, `O=C(O)CCc1ccc(OCc2c(-c3ccc(Cl)cc3)nsc2C(F)(F)F)c(F)c1F`: 86 nM.
Turning to `CCc1cc(CCC(=O)O)ccc1OCc1c(-c2ccc(Cl)cc2)nsc1C(F)(F)F`, the EC50 in data set [1] was determined as 202 nM.
Same read-out and setting: next, `O=C(O)CCc1cc(F)c(OCc2c(-c3ccccc3)nsc2C(F)(F)F)c(F)c1`: 160 nM; `CCc1ccc(-c2nsc(C(F)(F)C(F)(F)F)c2COc2ccc(CCC(=O)O)c(C)c2C)cc1`: 332 nM.
`CCc1ccc(-c2nsc(C(F)(F)F)c2COc2ccc(CCC(=O)O)c(C)c2C)cc1`: the figures for the EC50 in data set [1] and in data set [5] were 120 nM and 210 nM, respectively.
Turning to `Cc1snc(-c2ccc(Cl)cc2)c1COc1ccc(CCC(=O)O)c(C)c1C`, the EC50 in data set [1] amounted to 106 nM; in data set [5] it was 128 nM. The remaining at 10 min in data set [2] came out at 74%; in data set [3], 35%; in data set [4], 57%.
For the compound `CCc1ccc(-c2sncc2COc2ccc(CCC(=O)O)c(C)c2C)cc1`, the EC50 in data set [1] was found to be 191 nM.
Still for that read-out and setting: next, `O=C(O)CCc1c(F)c(F)c(OCc2c(-c3ccc(Cl)cc3)nsc2C(F)(F)F)c(F)c1F`: 173 nM.
Take `O=C(O)CCc1cc(F)c(OCc2c(-c3ccc(C(F)(F)F)cc3)nsc2C(F)(F)F)c(F)c1`: the EC50 in data set [1] is 108 nM.
The same measure, in the same setting: as for `O=C(O)CCc1cc(F)c(OCc2c(-c3ccc(Cl)cc3)nsc2C(F)(F)F)c(F)c1F`, the figure is 104 nM; as for `CCc1ccc(-c2nsc(CC)c2COc2ccc(CCC(=O)O)c(C)c2C)cc1`, 680 nM; as for `O=C(O)CCc1ccc(OCc2c(-c3ccc(Cl)cc3)nsc2C(F)(F)F)cc1C(F)(F)F`, 236 nM.
On the same count and under the same terms, as for `CCc1ccc(-c2nsc(C(C)C)c2COc2ccc(CCC(=O)O)c(C)c2C)cc1`, the figure is 1640 nM; as for `Cc1c(CCC(=O)O)cc(F)c(OCc2c(-c3ccc(Cl)cc3)nsc2C(F)(F)F)c1F`, 99 nM.
On to `O=C(O)CCc1ccc(OCc2c(-c3ccc(Cl)cc3)nsc2C(F)(F)F)c(Br)c1`, for which the EC50 in data set [1] came out at 31 nM.
With `Cc1c(CCC(=O)O)ccc(OCc2c(C(F)(F)F)nsc2-c2ccc(Cl)cc2)c1C`, the half-maximal effective concentration (EC50) turned out to be 94 nM in data set [1] and 105 nM in data set [5].
`O=C(O)CCc1cc(F)c(OCc2c(-c3ccc(Cl)c(F)c3)nsc2C(F)(F)F)c(F)c1`: the values for the EC50 in data set [1], in data set [6] and in data set [7] were 25 nM, 102 nM and 3000 nM, respectively. The remaining at 10 min in data set [2], in data set [3] and in data set [4] was 87 to 100% each time.
As to `Cc1c(CCC(=O)O)ccc(OCc2csnc2-c2ccc(Cl)cc2)c1C`, the concentration for a half-maximal effect (EC50) in data set [1] was determined as 215 nM. The remaining at 10 min was 86% in data set [2], 73% in data set [3] and 71% in data set [4].
`N#Cc1ccc(-c2nsc(C(F)(F)F)c2COc2c(F)cc(CCC(=O)O)cc2F)cc1`: the EC50 in data set [1] was found to be 672 nM.
